The text below walks through data of patent publication US20060116360A1, “Method of administering anti-angiogenic agents and a method of treating disease using same” (priority 2004, published 2006).

Series [1] relates to vascular endothelial cell proliferation. The note with it: endothelial versus tumor cell proliferation; cited from earlier work.
The subject of series [2] is Tumor cell lines (Lewis lung carcinoma or MDA-MB-231). The series can be described thus: Wash-out in vitro anti-proliferation studies (cell counts) with ENMD-1198. The series is classed as cell-based. How it is done: Tumor cell lines (Lewis lung carcinoma or MDA-MB-231) were treated in vitro for varying times with varying concentrations of ENMD-1198. Over the course of a three-day study, on each study day the cells were exposed to ENMD-1198 for varying times (1, 2, 4, 6, or 24 hours) at the indicated concentrations. The medium was then removed and replaced with medium without ENMD-1198 for the remainder of each 24-hour period. For the 24-hour exposure wells, the medium was changed every day to provide 72 hours continuous exposure. Anti-proliferative activity was determined by cell counts after the third day of treatment.

Series [3] has as its system Lewis lung carcinoma. The series can be described thus: Lewis lung carcinoma experimental pulmonary metastasis model. The series is classed as in vivo, mice. To be noted: for antitumor activity, T/C: 100 mg/kg/day. An excerpt: A pharmacodynamic paradigm relating 2ME2 pharmacokinetics to activity in vivo was developed. Dose-response relationships were established for 2ME2 following administration by (a) i.v. bolus administration, (b) oral gavage, (c) i.p. bolus injection, (d) i.p. dose fractionation, (e) continuous i.p. infusion, or (f) drinking water ad libitum in animal models, including an experimental pulmonary metastatic Lewis lung carcinoma model, primary tumor cell xenograft models, and a model of rheumatoid arthritis. Plasma 2ME2 concentration was temporally assessed by GC-MS or LC-MS/MS methodology, and pharmacokinetic parameters were defined at effective doses.
These studies assess the effect of route of administration on the anti-tumor activity of 2ME2 in an orthotopic model of murine lung cancer. Three days following the intravenous injection of Lewis lung carcinoma (“LLC”), groups of ten mice were treated with 2ME2 (200 mg/kg) once every 24 hours (q.d.) by either oral gavage (p.o.) or intraperitoneal (i.p.) injection.
FIG. 1, Panel B: 2.5×10^5 Lewis lung carcinoma cells in a volume of 0.2 ml were i.v. injected into the lateral tail vein of C57BL/6 male mice, 5-6 weeks of age (Jackson Labs). Treatment was initiated three days later by daily i.v. injection with 2ME2. Following the final day of therapy, mice were sacrificed, lungs removed, washed in phosphate buffered saline and weighed. Results are expressed as lung weight gain in treated versus control animals.
Dose-dependent inhibition of pulmonary metastases was observed following daily bolus administration of 2ME2. Fractionating a bolus q.d. injection (once every 24 hours, 2 mg/injection, 100 mg/kg/day) into four smaller, equal doses (q6hr, 0.5 mg/injection, 100 mg/kg/day) improved the antitumor activity of 2ME2 (T/C=0.30 and 0.05, respectively, p<0.05).
(§1) In further support of this paradigm, a significant inhibition of pulmonary metastases was obtained in tumor-bearing mice given 2ME2 by continuous infusion using Alzet pumps. Three days after injection of LLC cells, therapy was initiated i.p. with either vehicle control or with 2ME2 delivered through 7-day osmotic pumps (see FIG. 3A). The daily target levels of 2ME2 were calculated assuming an average pump rate of […]. To achieve a target level of 200 mg/kg/day, the concentration of 2ME2 in the osmotic pumps was prepared at 150 mg/mL. Asterisks indicate groups statistically different from vehicle control (α=0.05) as shown in A. To determine the PK profile of 2ME2 using this delivery scheme, non-tumor bearing male C57BL/6 mice (6 weeks of age) were treated i.p. for up to 7 days with 2ME2 at 1.8 mg/day (˜100 mg/kg/day) using 7-day osmotic pumps. On days 2, 4, and 7, plasma samples were collected and plasma 2ME2 levels were determined as described above (see FIG. 3B).
In further support of this paradigm, a significant inhibition of pulmonary metastases was obtained in tumor-bearing mice given 2ME2 ad libitum access through their drinking water.

Series [4] can be described thus: Plasma 2ME2 pharmacokinetics in non-tumor bearing C57BL/6 mice. The format is in vivo. To be noted: for Cmin / Tmax / T½ / Cmax / AUC0-24: i.p. The procedure:
On day 7, plasma samples were collected at selected time points, and plasma unconjugated 2ME2 levels were determined using LC-MS/MS methodology.
The data for 0.5 mg q.i.d. over the first six hours was used to model steady state levels over a 24 hr. time period as shown in FIG. 2. Pharmacokinetic parameters were determined by noncompartmental analysis using WinNonLin (Pharsight, Mountain View, Calif.).
as §1

The test system of series [5] is LLC cell line. Briefly: Wash-out in vitro proliferation study mimicking i.v. dosing. The note with it: 3microM 2ME2 for 2 hours, then medium alone. The format is cell-based. The procedure: FIG. 1, Panel C: We designed a “wash-out” in vitro proliferation study to mimic the exposure profile following i.v. dosing. The LLC cell line was plated in 96-well plates. After 24 hours, medium containing 3microM 2ME2 was added. Cells were exposed to 3microM 2ME2 for 2 hours. The medium was then removed and replaced with medium alone (medium: DMEM/F12 (1:1)+10% FBS+2mM L-Glutamine).

The subject of series [6] is Tumor cell lines (Lewis lung carcinoma or MDA-MB-231). Briefly: Wash-out in vitro anti-proliferation studies (BrdU) with 2ME2. The series is classed as cell-based. How it is done: To mimic the effect of cyclic levels of 2ME2 seen after daily dosing, and to compare this to the effects of continuous exposure to 2ME2, we carried out a series of wash-out in vitro anti-proliferation studies. Tumor cell lines (Lewis lung carcinoma or MDA-MB-231) were treated in vitro for varying times with varying concentrations of 2ME2. Over the course of a three-day study, on each study day the cells were exposed to 2ME2 for varying times (1, 2, 4, 6, or 24 hours) at the indicated concentrations. The medium was then removed and replaced with medium without 2ME2 for the remainder of each 24-hour period. Anti-proliferative activity was determined using a BrdU proliferation assay according to the manufacturer's instructions after the third day of treatment (see FIGS. 4A and 4B).

Series [7] concerns H2122 human NSCLC cells. Briefly: Orthotopic H2122 NSCLC rat tumor model, survival. The format is in vivo, rats. How it is done:
Female athymic nude rats were injected i.t. with H2122 human NSCLC cells (1×10^6 in 0.2 mL). Seven days later, daily therapy was initiated p.o. with either vehicle control or 2ME2 at 10 or 60 or 300 mg/kg/d (n=15 rats/group). Animals were monitored closely for signs of morbidity and median survival times (MST) were determined. The study was terminated 50 days post tumor cell injection. In a separate cohort of non-tumor-bearing rats, plasma 2ME2 concentrations were determined at selected time points following a single oral gavage at 60 and 300 mg/kg. The PK data in Table 3 represents the range of 2ME2 concentrations in a 24 hour period. […] Using relevant PK data for any given formulation in a human or animal, it is possible for one skilled in the art to devise a dosing strategy—a combination of dose level and dose frequency—which will result in substantially continuous maintenance of the plasma level of the agent within the desired concentration range and so maximize the pharmacological activity, in this case anti-tumor activity.

In series [8] the test system is collagen-induced arthritis. Briefly: Rat collagen-induced arthritis model, radiographic scores. The series is classed as in vivo. An excerpt: Using relevant PK data for any given formulation in a human or animal, it is possible for one skilled in the art to devise a dosing strategy-a combination of dose level and dose frequency-which will result in substantially continuous maintenance of the plasma level of the agent within the desired concentration range and so maximize the pharmacological activity, in this case anti-arthritic or anti-inflammatory activity.

Series [9] is described as follows: Plasma 2ME2 pharmacokinetics in non-tumor bearing C57BL/6 mice. The series is classed as in vivo. To be noted: ad libitum drinking water, range over a 24 hr period.
The mark [10] stands for this setting: short-term incubation, even at high concentrations.
Where [11] appears, read: 0.5 q.i.d., modelled from first six hours.

Entries after “also recorded” stand apart in the source; their conditions may differ. Marks after values point to notes of the source that are not given here.

As usually defined, the Tmax is the time from dosing to the highest level. For orientation: Cmax means the maximum level reached in the sampled fluid or tissue.

Take `CO[C@@H]1[C@H](OC(=O)NC(=O)CCl)CC[C@]2(CO2)[C@H]1[C@@]1(C)O[C@@H]1CC=C(C)C` [AGM-1470]: the “lower concentration for half-maximal inhibition of vascular endothelial cell proliferation than of tumor cell proliferation” value in series [1] was 4 logs.

Consider `COc1cc2c(cc1C(N)=O)CC[C@@H]1[C@@H]2CC[C@]2(C)C=CC[C@@H]12` [ENMD-1198], for which the “inhibition of proliferation in vitro” value in series [2] (continuous exposure (72 hours)) is on record as “maximal inhibition of proliferation”. Moreover, the “anti-proliferative activity in vitro” value in series [2] (setting [10]) was “does not result in much anti-proliferative activity”.

Turning to `COc1cc2c(cc1O)CC[C@@H]1[C@@H]2CC[C@]2(C)[C@@H](O)CC[C@@H]12` [Formulation 2ME2, 2-methoxyestradiol], the entries for the “inhibition of pulmonary metastases, T/C” value in [3] (2ME2 200 mg/kg q.d. i.p. injection), in series [3] (2ME2 200 mg/kg q.d. oral gavage (p.o.)) and in series [3] (2ME2 ad libitum through drinking water) were 0.17, 0.28 and 0.16, respectively. For the same compound, the “antitumor activity, T/C” value in [3] (bolus q.d., 2 mg/injection) is 0.30; in series [3] (q6hr, 0.5 mg/injection), 0.05. Moreover, in [3] (continuous i.p. infusion, Alzet osmotic pumps, calculated dose ~100 mg/kg/day), the “growth inhibition of pulmonary metastases” value is given as 89%. Moreover, the “anti-tumor activity in vivo (lung weight gain)” value in series [3] (daily i.v. injection, transiently high levels) is reported as “did not result in significant anti-tumor activity”. The Cmin in series [4] (0.5 q.d., day 7) came out at 1.46 ng/mL; in series [4] (setting [11]) it was 1.50 ng/mL; in series [4] (2.0 q.d., day 7), 0.86 ng/mL. For the same compound, the Tmax was 0.5 h in series [4] (0.5 q.d., day 7); 18.5 h in series [4] (setting [11]); 0.5 h in series [4] (2.0 q.d., day 7). The T½ is 1.1 h in [4] (0.5 q.d., day 7); 1.1 h in series [4] (setting [11]); 3.2 h in series [4] (2.0 q.d., day 7). Besides, the peak concentration (Cmax) in series [4] (0.5 q.d., day 7, plasma unconjugated 2ME2) was 325 ng/mL; in series [4] (0.5 q.i.d., steady state over 24 hr modelled from first six hours), 326.09 ng/mL; in series [4] (2.0 q.d., day 7), 14070 ng/mL. For the same compound, the AUC0-24 is 826.5^a ng/mL*hr in series [4] (0.5 q.d., day 7, = AUC0-6*4); 836.1 ng·h/mL in series [4] (setting [11]); 13570.9 ng·h/mL in series [4] (2.0 q.d., day 7). Moreover, the plasma exposure levels in series [4] (continuous i.p. infusion, Alzet osmotic pumps, ~100 mg/kg/day) was 9 to 25 ng/mL. The “anti-proliferative effect of transient exposure” value in series [5] is “poor anti-proliferative effect; also recorded: did not result in much anti-proliferative activity”. In series [6] (continuous exposure), the “inhibition of proliferation in vitro” value is recorded as “maximal inhibition of proliferation”. Also, the “anti-proliferative activity in vitro” value in series [6] (setting [10]) is given as “does not result in much anti-proliferative activity”. For the same compound, the “% Survival on Day 50” value in series [7] (2ME2 10 mg/kg/d p.o.) turned out to be 13%; in series [7] (2ME2 60 mg/mk/d p.o.) it was 20%; in series [7] (2ME2 300 mg/kg/d p.o.), 47%. In addition, the “Median Survival Time” value is 18.5 days in series [7] (2ME2 10 mg/kg/d p.o.), 26 days in [7] (2ME2 60 mg/mk/d p.o.) and 43 days in series [7] (2ME2 300 mg/kg/d p.o.). The “increase in median survival time as compared to diluent-treated controls” value in [7] (oral gavage, plasma 2ME2 3-17 ng/mL) amounted to 2.5 fold. For the same compound, the entries for the “radiographic scores on day 28” value in series [8] (2ME2 50 mg/kg p.o. b.i.d), in series [8] (2ME2 60 mg/kg s.c. continuous infusion (Alzet pumps)) and in [8] (2ME2 100 mg/kg p.o. q.d.) were 2.11±0.18, 1.5±0.18 and 2.88±0.21, respectively. Also, the “plasma 2ME2 concentrations” value in [9] lay within 3 to 15 ng/mL.
